Data taken from PubChem BioAssay AID260 (DTP/NCI, 2004).
Values joined by “and” are separate entries in the source; they are usually repeats but may differ in a detail not shown here. Identical values can stand only once. Toxic doses and inconclusive results are not listed.

Tested on: CD2F1 mice, intracerebral L1210 leukemia, survival T/C
Assay: NCI In Vivo Anticancer Drug Screen. Data for tumor model L1210 Leukemia (intracerebral) in CD2F1 (CDF1) mice
Conditions: higher = longer survival
Method: The antitumor activity of compounds was measured in mice bearing transplantable tumors. Survival or tumor size were measured and the results are expressed as the measurement made in the treated group (T) divided by the measurement made in the vehicle treated control group (C). The tumor model used in this assay is L1210 Leukemia (intracerebral) in CD2F1 (CDF1) mice

CC(=O)c1ccc(N=NN(C)C)cc1
T/C (endpoint: mean survival time, dose: 5.0 mg/kg/injection, schedule: Q01DX007 (ip), vehicle: other): 107 % of control
T/C (endpoint: mean survival time, dose: 10.0 mg/kg/injection, schedule: Q01DX007 (ip), vehicle: other): 89 % of control
T/C (endpoint: mean survival time, dose: 20.0 mg/kg/injection, schedule: Q01DX007 (ip), vehicle: other): 97 % of control
T/C (endpoint: mean survival time, dose: 40.0 mg/kg/injection, schedule: Q01DX007 (ip), vehicle: other): 103 % of control
T/C (endpoint: mean survival time, dose: 60.0 mg/kg/injection, schedule: Q01DX007 (ip), vehicle: other): 93 % of control

COC(=O)c1cccc(N=NN(C)C)c1
T/C (endpoint: median survival time, dose: 8.0 mg/kg/injection, schedule: Q01DX005 (ip), vehicle: saline + alcohol): 104 % of control
T/C (endpoint: median survival time, dose: 16.0 mg/kg/injection, schedule: Q01DX005 (ip), vehicle: saline + alcohol): 100 % of control
T/C (endpoint: median survival time, dose: 32.0 mg/kg/injection, schedule: Q01DX005 (ip), vehicle: saline + alcohol): 104 % of control
T/C (endpoint: median survival time, dose: 64.0 mg/kg/injection, schedule: Q01DX005 (ip), vehicle: saline + alcohol): 113 % of control
T/C (endpoint: median survival time, dose: 128.0 mg/kg/injection, schedule: Q01DX005 (ip), vehicle: saline + alcohol): 117 % of control

CN(C)C1=C(N2CC2)C(=O)C(N(C)C)=C(N2CC2)C1=O
T/C (endpoint: mean survival time, dose: 0.75 mg/kg/injection, schedule: Q04DX003 (ip), vehicle: saline): 122 % of control and 110 % of control
T/C (endpoint: mean survival time, dose: 1.5 mg/kg/injection, schedule: Q04DX003 (ip), vehicle: saline): 152 % of control and 154 % of control
T/C (endpoint: mean survival time, dose: 3.0 mg/kg/injection, schedule: Q04DX003 (ip), vehicle: saline): 156 % of control and 172 % of control

O=C1C(=O)c2ccccc2C(O)=C1CC=C(Cl)Cl
T/C (endpoint: median survival time, dose: 10.0 mg/kg/injection, schedule: Q01DX005 (ip), vehicle: Klucel (hydroxypropylcellulose) (HPC)): 89 % of control and 96 % of control
T/C (endpoint: median survival time, dose: 20.0 mg/kg/injection, schedule: Q01DX005 (ip), vehicle: Klucel (hydroxypropylcellulose) (HPC)): 95 % of control and 96 % of control
T/C (endpoint: median survival time, dose: 40.0 mg/kg/injection, schedule: Q01DX005 (ip), vehicle: Klucel (hydroxypropylcellulose) (HPC)): 101 % of control and 109 % of control
T/C (endpoint: median survival time, dose: 80.0 mg/kg/injection, schedule: Q01DX005 (ip), vehicle: Klucel (hydroxypropylcellulose) (HPC)): 109 % of control and 117 % of control

O=NN(CCCl)C(=O)NCCCl
T/C (endpoint: mean survival time, dose: 10.0 mg/kg/injection, schedule: Q01DX001 (ip), vehicle: saline): 175 % of control
T/C (endpoint: mean survival time, dose: 15.0 mg/kg/injection, schedule: Q01DX002 (ip), vehicle: saline + alcohol): 184 % of control
T/C (endpoint: mean survival time, dose: 20.0 mg/kg/injection, schedule: Q01DX001 (ip), vehicle: saline + alcohol): 169 % of control and 182 % of control
T/C (endpoint: mean survival time, dose: 20.0 mg/kg/injection, schedule: Q01DX001 (ip), vehicle: saline): 210 % of control and 254 % of control
T/C (endpoint: mean survival time, dose: 20.0 mg/kg/injection, schedule: Q01DX002 (ip), vehicle: saline + alcohol): 281 % of control
T/C (endpoint: mean survival time, dose: 25.0 mg/kg/injection, schedule: Q01DX002 (ip), vehicle: saline + alcohol): 348 % of control
T/C (endpoint: mean survival time, dose: 30.0 mg/kg/injection, schedule: Q01DX001 (ip), vehicle: saline + alcohol): 220 % of control and 319 % of control
T/C (endpoint: mean survival time, dose: 30.0 mg/kg/injection, schedule: Q01DX002 (ip), vehicle: saline + alcohol): 184 % of control
T/C (endpoint: mean survival time, dose: 40.0 mg/kg/injection, schedule: Q01DX001 (ip), vehicle: saline + alcohol): 343 % of control
T/C (endpoint: mean survival time, dose: 40.0 mg/kg/injection, schedule: Q01DX001 (ip), vehicle: saline): 202 % of control
T/C (endpoint: median survival time, dose: 4.0 mg/kg/injection, schedule: Q01DX001 (ip), vehicle: saline + alcohol): 93 % of control
T/C (endpoint: median survival time, dose: 8.0 mg/kg/injection, schedule: Q01DX001 (ip), vehicle: saline + alcohol): 97 % of control
T/C (endpoint: median survival time, dose: 12.5 mg/kg/injection, schedule: Q01DX001 (ip), vehicle: DMSO): 173 % of control
T/C (endpoint: median survival time, dose: 16.0 mg/kg/injection, schedule: Q01DX001 (ip), vehicle: saline + alcohol): 97 % of control
T/C (endpoint: median survival time, dose: 20.0 mg/kg/injection, schedule: Q01DX001 (ip), vehicle: distilled water + alcohol): 305 % of control
T/C (endpoint: median survival time, dose: 20.0 mg/kg/injection, schedule: Q01DX001 (ip), vehicle: saline + alcohol): 190 % of control
T/C (endpoint: median survival time, dose: 24.0 mg/kg/injection, schedule: Q01DX001 (ip), vehicle: saline + alcohol): 122 % of control and 153 % of control and 270 % of control
T/C (endpoint: median survival time, dose: 25.0 mg/kg/injection, schedule: Q01DX001 (ip), vehicle: DMSO): 253 % of control
T/C (endpoint: median survival time, dose: 30.0 mg/kg/injection, schedule: Q01DX001 (ip), vehicle: saline + alcohol): 201 % of control and 313 % of control
T/C (endpoint: median survival time, dose: 40.0 mg/kg/injection, schedule: Q01DX001 (ip), vehicle: distilled water + alcohol): 183 % of control
T/C (endpoint: median survival time, dose: 40.0 mg/kg/injection, schedule: Q01DX001 (ip), vehicle: saline + alcohol): 220 % of control
T/C (endpoint: median survival time, dose: 60.0 mg/kg/injection, schedule: Q01DX001 (ip), vehicle: saline + alcohol): 166 % of control
